Columns and labels:
Assay type in all cases: in vivo
corn (Zea mays) = test: Test A greenhouse herbicide test, pre- and postemergence; settings: Postemergence; for Plant response rating, Corn: 125 g ai/ha, visual rating after approx. 10 d, 0 to 100 scale (0 no effect, 100 complete control); for Corn plant response rating: 500 g ai/ha, 0 to 100 scale, 0 is no effect, 100 is complete control
In short: (§1)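 Visual injury ratings, 0 (no effect) to 100 (complete control), versus untreated plants after roughly 10 d in a greenhouse. Compounds, formulated in a surfactant-containing non-phytotoxic solvent, were sprayed on loam–sand soil after sowing (pre) or on one- to two-leaf plants 2–10 cm tall (post).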

[1] = system: foxtail, giant (giant foxtail, Setaria faberii); test: as above
In short: as §1

kochia (Kochia scoparia) = test: as above
In short: as §1

[2] = system: ragweed (common ragweed, Ambrosia elatior); test: as above
In short: as §1

[3] = system: ryegrass, Italian (Italian ryegrass, Lolium multiflorum); test: as above
In short: as §1

[4] = system: wheat (Triticum aestivum); test: as above; settings: Postemergence; for Plant response rating, Wheat: 125 g ai/ha, 0 to 100 scale where 0 is no effect and 100 is complete control; for Wheat plant response rating: 500 g ai/ha, 0 to 100 scale, 0 is no effect, 100 is complete control
In short: as §1

[5] = system: blackgrass (Alopecurus myosuroides); test: Test A greenhouse herbicide test, postemergence; settings: for Plant response rating, Blackgrass: 125 g ai/ha, visual rating after approx. 10 d, 0 to 100 scale (0 no effect, 100 complete control); for Blackgrass plant response rating: 500 g ai/ha, 0 to 100 scale, 0 is no effect, 100 is complete control
In short: (§2)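 Seedlings in a loam soil and sand mix received formulated compound postemergence at the one- to two-leaf stage. Greenhouse holding lasts approximately 10 d, then injury is scored visually relative to untreated plants, 0 meaning no effect and 100 complete control.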

[6] = system: galium (catchweed bedstraw, Galium aparine); test: Test A greenhouse herbicide test, postemergence; settings: for Plant response rating, Galium: 125 g ai/ha, visual rating after approx. 10 d, 0 to 100 scale (0 no effect, 100 complete control); for Galium plant response rating: 500 g ai/ha, 0 to 100 scale, 0 is no effect, 100 is complete control
In short: as §2

[7] = system: galium (catchweed bedstraw, Galium aparine); test: Test C greenhouse herbicide test, pre- and postemergence
In short: (§3)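 Percent-control ratings (0 none, 100 complete) came from visual comparison with controls held alongside in the greenhouse for 13–15 d. Treatments covered soil application at sowing and foliar application to young plants 2–18 cm tall.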

[8] = system: ragweed (common ragweed, Ambrosia elatior); test: as above
In short: as §3

[9] = system: ryegrass, Italian (Italian ryegrass, Lolium multiflorum); test: as above
In short: as §3

soybean (Glycine max) = test: as above
In short: as §3

[10] = Postemergence, 125 g ai/ha, visual rating after approx. 10 d, 0 to 100 scale (0 no effect, 100 complete control)
[11] = Postemergence, 500 g ai/ha, 0 to 100 scale, 0 is no effect, 100 is complete control
[12] = Preemergence, 125 g ai/ha, 0 to 100 scale where 0 is no effect and 100 is complete control
[13] = Preemergence, 500 g ai/ha, 0 to 100 scale, 0 no effect, 100 complete control
[14] = Postemergence, 125 g ai/ha, 0 to 100 scale where 0 is no effect and 100 is complete control
[15] = Postemergence, 31 g ai/ha, 0 to 100 scale (0 no effect, 100 complete control)
[16] = Postemergence, 125 g ai/ha, scale 0 to 100, 0 is no effect, 100 is complete control
[17] = Postemergence, 250 g ai/ha, scale 0 to 100, 0 no effect, 100 complete control, 13 to 15 d
[18] = Preemergence, 31 g ai/ha, scale 0 to 100, 0 is no effect, 100 is complete control
[19] = Preemergence, 62 g ai/ha, scale 0 to 100, 0 is no effect, 100 is complete control
[20] = Preemergence, 125 g ai/ha, scale 0 to 100, 0 is no effect, 100 is complete control
[21] = Preemergence, 250 g ai/ha, scale 0 to 100 (0 no effect, 100 complete control)
[22] = postemergence, 62 g ai/ha, scale 0 to 100, 0 no effect, 100 complete control

Compound: CC(=O)Oc1c(C)nn(C)c(=O)c1-c1c(C)sc2ccc(C)cc12 [Compound 25]
- Plant response rating, Corn (corn (Zea mays)): 0
- Corn plant response rating (corn (Zea mays)): 20
- Plant response rating, Foxtail, Giant [1, 10]: 90
- Foxtail, Giant plant response rating [1, 11]: 90
- Foxtail, Giant plant response rating [1, 12]: 90
- Plant response rating, Foxtail, Giant [1, 13]: 90
- Plant response rating, Kochia (kochia (Kochia scoparia); [10]): 100
- Kochia plant response rating (kochia (Kochia scoparia); [11]): 100
- Kochia plant response rating (kochia (Kochia scoparia); [12]): 90
- Plant response rating, Kochia (kochia (Kochia scoparia); [13]): 100
- Plant response rating, Ragweed [2, 10]: 100
- Ragweed plant response rating [2, 11]: 100
- Ragweed plant response rating [2, 12]: 90
- Plant response rating, Ragweed [2, 13]: 100
- Plant response rating, Ryegrass, Italian [3, 14]: 100
- Ryegrass, Italian plant response rating [3, 11]: 100
- Ryegrass, Italian plant response rating [3, 12]: 100
- Plant response rating, Ryegrass, Italian [3, 13]: 100
- Plant response rating, Wheat [4]: 0
- Wheat plant response rating [4]: 0
- Plant response rating, Blackgrass [5]: 60
- Blackgrass plant response rating [5]: 90
- Plant response rating, Galium [6]: 100
- Galium plant response rating [6]: 100
- Galium plant response rating [7, 15]: 90
- Plant response rating, Galium [7, 16]: 100
- Plant response rating, Galium [7, 17]: 95
- Plant response rating, Galium [7, 18]: 90
- Plant response rating, Galium [7, 19]: 95
- Plant response rating, Galium [7, 20]: 95
- Galium plant response rating [7, 21]: 98
- Galium plant response rating [7, 22]: 95
- Ragweed plant response rating [8, 15]: 90
- Plant response rating, Ragweed [8, 16]: 95
- Plant response rating, Ragweed [8, 17]: 95
- Plant response rating, Ragweed [8, 18]: 80
- Plant response rating, Ragweed [8, 19]: 95
- Plant response rating, Ragweed [8, 20]: 98
- Ragweed plant response rating [8, 21]: 95
- Ragweed plant response rating [8, 22]: 85
- Ryegrass, Italian plant response rating [9, 15]: 70
- Plant response rating, Ryegrass, Italian [9, 16]: 90
- Plant response rating, Ryegrass, Italian [9, 17]: 95
- Plant response rating, Ryegrass, Italian [9, 18]: 90
- Plant response rating, Ryegrass, Italian [9, 19]: 95
- Plant response rating, Ryegrass, Italian [9, 20]: 95
- Ryegrass, Italian plant response rating [9, 21]: 95
- Ryegrass, Italian plant response rating [9, 22]: 85
- Soybean plant response rating (soybean (Glycine max); [15]): 0
- Plant response rating, Soybean (soybean (Glycine max); [16]): 10
- Plant response rating, Soybean (soybean (Glycine max); [17]): 10
- Plant response rating, Soybean (soybean (Glycine max); [19]): 0
- Plant response rating, Soybean (soybean (Glycine max); [20]): 0
- Soybean plant response rating (soybean (Glycine max); [21]): 5
- Soybean plant response rating (soybean (Glycine max); [22]): 0

Compound: CC(=O)Oc1c(C)nn(C)c(=O)c1-c1c(C)sc2c(C)cc(C)cc12 [Compound 27]
- Plant response rating, Corn (corn (Zea mays)): 0
- Corn plant response rating (corn (Zea mays)): 20
- Plant response rating, Foxtail, Giant [1, 10]: 90
- Foxtail, Giant plant response rating [1, 11]: 90
- Foxtail, Giant plant response rating [1, 12]: 90
- Plant response rating, Foxtail, Giant [1, 13]: 100
- Plant response rating, Kochia (kochia (Kochia scoparia); [10]): 70
- Kochia plant response rating (kochia (Kochia scoparia); [11]): 90
- Kochia plant response rating (kochia (Kochia scoparia); [12]): 40
- Plant response rating, Kochia (kochia (Kochia scoparia); [13]): 90
- Plant response rating, Ragweed [2, 10]: 100
- Ragweed plant response rating [2, 11]: 100
- Ragweed plant response rating [2, 12]: 90
- Plant response rating, Ragweed [2, 13]: 100
- Plant response rating, Ryegrass, Italian [3, 14]: 100
- Ryegrass, Italian plant response rating [3, 11]: 100
- Ryegrass, Italian plant response rating [3, 12]: 100
- Plant response rating, Ryegrass, Italian [3, 13]: 100
- Plant response rating, Wheat [4]: 0
- Wheat plant response rating [4]: 0
- Plant response rating, Blackgrass [5]: 90
- Blackgrass plant response rating [5]: 90
- Plant response rating, Galium [6]: 100
- Galium plant response rating [6]: 100
- Galium plant response rating [7, 15]: 100
- Plant response rating, Galium [7, 16]: 100
- Plant response rating, Galium [7, 17]: 100
- Plant response rating, Galium [7, 18]: 90
- Plant response rating, Galium [7, 19]: 95
- Plant response rating, Galium [7, 20]: 95
- Galium plant response rating [7, 21]: 95
- Galium plant response rating [7, 22]: 100
- Ragweed plant response rating [8, 15]: 70
- Plant response rating, Ragweed [8, 16]: 85
- Plant response rating, Ragweed [8, 17]: 90
- Plant response rating, Ragweed [8, 18]: 80
- Plant response rating, Ragweed [8, 19]: 100
- Plant response rating, Ragweed [8, 20]: 100
- Ragweed plant response rating [8, 21]: 95
- Ragweed plant response rating [8, 22]: 75
- Ryegrass, Italian plant response rating [9, 15]: 80
- Plant response rating, Ryegrass, Italian [9, 16]: 90
- Plant response rating, Ryegrass, Italian [9, 17]: 90
- Plant response rating, Ryegrass, Italian [9, 18]: 85
- Plant response rating, Ryegrass, Italian [9, 19]: 90
- Plant response rating, Ryegrass, Italian [9, 20]: 90
- Ryegrass, Italian plant response rating [9, 21]: 95
- Ryegrass, Italian plant response rating [9, 22]: 85
- Soybean plant response rating (soybean (Glycine max); [15]): 0
- Plant response rating, Soybean (soybean (Glycine max); [16]): 0
- Plant response rating, Soybean (soybean (Glycine max); [17]): 0
- Plant response rating, Soybean (soybean (Glycine max); [19]): 0
- Plant response rating, Soybean (soybean (Glycine max); [20]): 10
- Soybean plant response rating (soybean (Glycine max); [21]): 0
- Soybean plant response rating (soybean (Glycine max); [22]): 0

Compound: CCC(=O)Oc1c(C)nn(C)c(=O)c1-c1c(C)sc2c(C)cc(C)cc12 [Compound 28]
- Plant response rating, Corn (corn (Zea mays)): 0
- Corn plant response rating (corn (Zea mays)): 20
- Plant response rating, Foxtail, Giant [1, 10]: 90
- Foxtail, Giant plant response rating [1, 11]: 90
- Foxtail, Giant plant response rating [1, 12]: 100
- Plant response rating, Foxtail, Giant [1, 13]: 100
- Plant response rating, Kochia (kochia (Kochia scoparia); [10]): 70
- Kochia plant response rating (kochia (Kochia scoparia); [11]): 90
- Kochia plant response rating (kochia (Kochia scoparia); [12]): 50
- Plant response rating, Kochia (kochia (Kochia scoparia); [13]): 90
- Plant response rating, Ragweed [2, 10]: 80
- Ragweed plant response rating [2, 11]: 100
- Ragweed plant response rating [2, 12]: 90
- Plant response rating, Ragweed [2, 13]: 90
- Plant response rating, Ryegrass, Italian [3, 14]: 90
- Ryegrass, Italian plant response rating [3, 11]: 100
- Ryegrass, Italian plant response rating [3, 12]: 100
- Plant response rating, Ryegrass, Italian [3, 13]: 100
- Plant response rating, Wheat [4]: 0
- Wheat plant response rating [4]: 0
- Plant response rating, Blackgrass [5]: 90
- Blackgrass plant response rating [5]: 90
- Plant response rating, Galium [6]: 100
- Galium plant response rating [6]: 100
- Galium plant response rating [7, 15]: 100
- Plant response rating, Galium [7, 16]: 100
- Plant response rating, Galium [7, 17]: 100
- Plant response rating, Galium [7, 18]: 95
- Plant response rating, Galium [7, 19]: 95
- Plant response rating, Galium [7, 20]: 95
- Galium plant response rating [7, 21]: 95
- Galium plant response rating [7, 22]: 100
- Ragweed plant response rating [8, 15]: 65
- Plant response rating, Ragweed [8, 16]: 85
- Plant response rating, Ragweed [8, 17]: 90
- Plant response rating, Ragweed [8, 18]: 70
- Plant response rating, Ragweed [8, 19]: 90
- Plant response rating, Ragweed [8, 20]: 95
- Ragweed plant response rating [8, 21]: 90
- Ragweed plant response rating [8, 22]: 75
- Ryegrass, Italian plant response rating [9, 15]: 80
- Plant response rating, Ryegrass, Italian [9, 16]: 90
- Plant response rating, Ryegrass, Italian [9, 17]: 95
- Plant response rating, Ryegrass, Italian [9, 18]: 85
- Plant response rating, Ryegrass, Italian [9, 19]: 90
- Plant response rating, Ryegrass, Italian [9, 20]: 95
- Ryegrass, Italian plant response rating [9, 21]: 95
- Ryegrass, Italian plant response rating [9, 22]: 85
- Soybean plant response rating (soybean (Glycine max); [15]): 0
- Plant response rating, Soybean (soybean (Glycine max); [16]): 0
- Plant response rating, Soybean (soybean (Glycine max); [17]): 5
- Plant response rating, Soybean (soybean (Glycine max); [19]): 25
- Plant response rating, Soybean (soybean (Glycine max); [20]): 0
- Soybean plant response rating (soybean (Glycine max); [21]): 50
- Soybean plant response rating (soybean (Glycine max); [22]): 0
